Laboratory results taken from patent publication US6770596B1, “Fused tricyclic compounds, process for their preparation, and herbicidal compositions containing them” (Ishihara Sangyo Kaisha Ltd., priority 2002, dated 2004).

Experiments:
Assay type in all cases: in vivo
[1] = test system: redroot pigweed (Amaranthus retroflexus, AMR); assay: Pre-emerge test, redroot pigweed; conditions: 250 g ai/ha, 14 days after application, rating scale 0-100 (0 no damage, 100 complete death)
Text: (§1) A standard greenhouse herbicide activity screening system was used to evaluate the herbicidal efficacy and crop safety of these test compounds. Seven broadleaf weed species including redroot pigweed (Amaranthus retroflexus, AMR), velvetleaf (Abutilon theophrasti, ABT), sicklepod (Cassia obtusifolia, CAO), ivyleaf morningglory (Ipomoea hederacea, IPH), lambsquarters (Chenopodium album, CHA), common ragweed (Ambrosia artemisiifolia L., AML), and cocklebur (Xanthium strumariunt, XAS) were used as test species. Four grass weed species including green foxtail (Setaria viridis, SEV), barnyardgrass (Echinachloa crus-galli, ECC), johnsongrass (Sorghum halepense, SOH), and large crabgrass (Digitaria sanguinalis, DIS) were also used. In addition, four crop species, field corn (Zea mays L., var. Dekalb 535, CORN), soybean (Glycine max L., var. Pella 86, SOY), upland rice (Oryza sp., var.Tebonnet, RICE), and wheat (Triticum aestivum) were included all plants were grown in 10 cm square plastic pots which were filled with a sandy loam soil mix.
(§2) For pre-emerge tests, seeds were planted one day prior to application of the test compounds. All test compounds were dissolved in acetone and applied to the test pots in a volume of 187 l/ha. Test materials were applied at rates ranging from 8 g ai/ha to 1000 g ai/ha using a track sprayer equipped with a TJ8001E even flow flat fan spray nozzle. This application simulates a typical commercial field herbicide application.
(§3) At 14 days after application of the test materials, phytotoxicity ratings were recorded. A rating scale of 0-100 was used for both pre and post emerge tests as previously described in Research Methods in Weed Science, 2nd edition, B, Truelove, Ed., Southern Weed Science Society, Auburn University, Auburn, Ala., 1977. Briefly, “0” corresponds to no damage and “100” corresponds to complete death of all plants in the test unit. This scale was used both to determine efficacy against weed species and damage to crop species. Herbicide activity data for various compounds of this invention, which are shown by compound No. in Tables 1-3, are shown in Tables 5 and 6.

[2] = test system: velvetleaf (Abutilon theophrasti, ABT); assay: Pre-emerge test, velvetleaf; conditions: 250 g ai/ha, 14 days after application, rating scale 0-100 (0 no damage, 100 complete death)
Text: as §1, §2, §3

[3] = test system: sicklepod (Cassia obtusifolia, CAO); assay: Pre-emerge test, sicklepod; conditions: 250 g ai/ha, 14 days after application, rating scale 0-100 (0 no damage, 100 complete death)
Text: as §1, §2, §3

[4] = test system: ivyleaf morningglory (Ipomoea hederacea, IPH); assay: Pre-emerge test, ivyleaf morningglory; conditions: 250 g ai/ha, 14 days after application, rating scale 0-100 (0 no damage, 100 complete death)
Text: as §1, §2, §3

[5] = test system: lambsquarters (Chenopodium album, CHA); assay: Pre-emerge test, lambsquarters; conditions: 250 g ai/ha, 14 days after application, rating scale 0-100 (0 no damage, 100 complete death)
Text: as §1, §2, §3

[6] = test system: common ragweed (Ambrosia artemisiifolia L., AML); assay: Pre-emerge test, common ragweed; conditions: 250 g ai/ha, 14 days after application, rating scale 0-100 (0 no damage, 100 complete death)
Text: as §1, §2, §3

[7] = test system: cocklebur (Xanthium strumariunt, XAS); assay: Pre-emerge test, cocklebur; conditions: 250 g ai/ha, 14 days after application, rating scale 0-100 (0 no damage, 100 complete death)
Text: as §1, §2, §3

[8] = test system: green foxtail (Setaria viridis, SEV); assay: Pre-emerge test, green foxtail; conditions: 250 g ai/ha, 14 days after application, rating scale 0-100 (0 no damage, 100 complete death)
Text: as §1, §2, §3

[9] = test system: barnyardgrass (Echinachloa crus-galli, ECC); assay: Pre-emerge test, barnyardgrass; conditions: 250 g ai/ha, 14 days after application, rating scale 0-100 (0 no damage, 100 complete death)
Text: as §1, §2, §3

[10] = test system: johnsongrass (Sorghum halepense, SOH); assay: Pre-emerge test, johnsongrass; conditions: 250 g ai/ha, 14 days after application, rating scale 0-100 (0 no damage, 100 complete death)
Text: as §1, §2, §3

[11] = test system: large crabgrass (Digitaria sanguinalis, DIS); assay: Pre-emerge test, large crabgrass; conditions: 250 g ai/ha, 14 days after application, rating scale 0-100 (0 no damage, 100 complete death)
Text: as §1, §2, §3

[12] = test system: field corn (Zea mays L., var. Dekalb 535, CORN); assay: Pre-emerge test, crop damage field corn
Text: as §1, §2, §3

[13] = test system: soybean (Glycine max L., var. Pella 86, SOY); assay: Pre-emerge test, crop damage soybean
Text: as §1, §2, §3

[14] = test system: upland rice (Oryza sp., var.Tebonnet, RICE); assay: Pre-emerge test, crop damage upland rice
Text: as §1, §2, §3

[15] = test system: wheat (Triticum aestivum); assay: Pre-emerge test, crop damage wheat
Text: as §1, §2, §3

[16] = test system: redroot pigweed (Amaranthus retroflexus, AMR); assay: Post-emerge test, redroot pigweed; conditions: 250 g ai/ha, 14 days after application, rating scale 0-100 (0 no damage, 100 complete death)
Text: as §1, §2
(§4) For post-emerge tests, seeds were planted 8-21 days prior to the test to allow emergence and good foliage development prior to application of the test substances. At the time of the post-emerge application, plants of all species were usually at the 2-3 leaf stage of development. In the postemerge test, a commercial non-ionic surfactant was also included (0.25% v/v) to enhance wetting of the leaf surfaces of target plants.
as §3

[17] = test system: velvetleaf (Abutilon theophrasti, ABT); assay: Post-emerge test, velvetleaf; conditions: 250 g ai/ha, 14 days after application, rating scale 0-100 (0 no damage, 100 complete death)
Text: as §1, §2, §4, §3

[18] = test system: sicklepod (Cassia obtusifolia, CAO); assay: Post-emerge test, sicklepod; conditions: 250 g ai/ha, 14 days after application, rating scale 0-100 (0 no damage, 100 complete death)
Text: as §1, §2, §4, §3

[19] = test system: ivyleaf morningglory (Ipomoea hederacea, IPH); assay: Post-emerge test, ivyleaf morningglory; conditions: 250 g ai/ha, 14 days after application, rating scale 0-100 (0 no damage, 100 complete death)
Text: as §1, §2, §4, §3

[20] = test system: lambsquarters (Chenopodium album, CHA); assay: Post-emerge test, lambsquarters; conditions: 250 g ai/ha, 14 days after application, rating scale 0-100 (0 no damage, 100 complete death)
Text: as §1, §2, §4, §3

[21] = test system: common ragweed (Ambrosia artemisiifolia L., AML); assay: Post-emerge test, common ragweed; conditions: 250 g ai/ha, 14 days after application, rating scale 0-100 (0 no damage, 100 complete death)
Text: as §1, §2, §4, §3

[22] = test system: cocklebur (Xanthium strumariunt, XAS); assay: Post-emerge test, cocklebur; conditions: 250 g ai/ha, 14 days after application, rating scale 0-100 (0 no damage, 100 complete death)
Text: as §1, §2, §4, §3

[23] = test system: green foxtail (Setaria viridis, SEV); assay: Post-emerge test, green foxtail; conditions: 250 g ai/ha, 14 days after application, rating scale 0-100 (0 no damage, 100 complete death)
Text: as §1, §2, §4, §3

[24] = test system: barnyardgrass (Echinachloa crus-galli, ECC); assay: Post-emerge test, barnyardgrass; conditions: 250 g ai/ha, 14 days after application, rating scale 0-100 (0 no damage, 100 complete death)
Text: as §1, §2, §4, §3

[25] = test system: johnsongrass (Sorghum halepense, SOH); assay: Post-emerge test, johnsongrass; conditions: 250 g ai/ha, 14 days after application, rating scale 0-100 (0 no damage, 100 complete death)
Text: as §1, §2, §4, §3

[26] = test system: large crabgrass (Digitaria sanguinalis, DIS); assay: Post-emerge test, large crabgrass; conditions: 250 g ai/ha, 14 days after application, rating scale 0-100 (0 no damage, 100 complete death)
Text: as §1, §2, §4, §3

[27] = test system: field corn (Zea mays L., var. Dekalb 535, CORN); assay: Post-emerge test, crop damage field corn
Text: as §1, §2, §4, §3

[28] = test system: soybean (Glycine max L., var. Pella 86, SOY); assay: Post-emerge test, crop damage soybean
Text: as §1, §2, §4, §3

[29] = test system: upland rice (Oryza sp., var.Tebonnet, RICE); assay: Post-emerge test, crop damage upland rice
Text: as §1, §2, §4, §3

[30] = test system: wheat (Triticum aestivum); assay: Post-emerge test, crop damage wheat
Text: as §1, §2, §4, §3

[31] = pre-emerge, 250 g ai/ha, 14 days after application, rating scale 0-100 (0 no damage, 100 complete death)
[32] = post-emerge, 250 g ai/ha, 14 days after application, rating scale 0-100 (0 no damage, 100 complete death)
[33] = var. Dekalb 535, Zea mays (field corn), in vivo, 14 days
[34] = var. Pella 86, Glycine max (soybean), in vivo, 14 days
[35] = var. Tebonnet, Oryza sp. (upland rice), in vivo, 14 days
[36] = Triticum aestivum (wheat), in vivo, 14 days

Row | SMILES | Pre-emerge Herbicidal Activity AMR (phytotoxicity rating) [1] | Pre-emerge Herbicidal Activity ABT (phytotoxicity rating) [2] | Pre-emerge Herbicidal Activity CAO (phytotoxicity rating) [3] | Pre-emerge Herbicidal Activity IPH (phytotoxicity rating) [4] | Pre-emerge Herbicidal Activity CHA (phytotoxicity rating) [5] | Pre-emerge Herbicidal Activity AML (phytotoxicity rating) [6] | Pre-emerge Herbicidal Activity XAS (phytotoxicity rating) [7] | Pre-emerge Herbicidal Activity SEV (phytotoxicity rating) [8] | Pre-emerge Herbicidal Activity ECC (phytotoxicity rating) [9] | Pre-emerge Herbicidal Activity SOH (phytotoxicity rating) [10] | Pre-emerge Herbicidal Activity DIS (phytotoxicity rating) [11] | Post-emerge Herbicidal Activity AMR (phytotoxicity rating) [16] | Post-emerge Herbicidal Activity ABT (phytotoxicity rating) [17] | Post-emerge Herbicidal Activity CAO (phytotoxicity rating) [18] | Post-emerge Herbicidal Activity IPH (phytotoxicity rating) [19] | Post-emerge Herbicidal Activity CHA (phytotoxicity rating) [20] | Post-emerge Herbicidal Activity AML (phytotoxicity rating) [21] | Post-emerge Herbicidal Activity XAS (phytotoxicity rating) [22] | Post-emerge Herbicidal Activity SEV (phytotoxicity rating) [23] | Post-emerge Herbicidal Activity ECC (phytotoxicity rating) [24] | other results
1 | CCC1C(=O)Nc2c3c(cc(F)c2-n2c(=O)cc(C(F)(F)F)n(C)c2=O)OCC(=O)N31 (stereo not drawn) [1-4] | 100 | 100 | 99 | 100 | 100 | 100 | 100 | 100 | 100 | 100 | 100 | 0 | 100 | 0 | 90 | 99 | 80 | 90 | 60 | 50 | Pre-emerge crop damage CORN (phytotoxicity rating) [12, 31]: 100; Pre-emerge crop damage SOY (phytotoxicity rating) [13, 31]: 100; Pre-emerge crop damage RICE (phytotoxicity rating) [14, 31]: 99; Pre-emerge crop damage WHEAT (phytotoxicity rating) [15, 31]: 100; Post-emerge Herbicidal Activity SOH (phytotoxicity rating) [25]: 15; Post-emerge Herbicidal Activity DIS (phytotoxicity rating) [26]: 0; Post-emerge crop damage CORN (phytotoxicity rating) [27, 32]: 0; Post-emerge crop damage SOY (phytotoxicity rating) [28, 32]: 60; Post-emerge crop damage RICE (phytotoxicity rating) [29, 32]: 75; Post-emerge crop damage WHEAT (phytotoxicity rating) [30, 32]: 25
2 | Cn1nc(-c2c(F)cc3c4c2NC(=O)CN4C(=O)CO3)c(Cl)c1C(F)(F)F [1-13, 8-[4-Chloro-1-methyl-5-(trifluoromethyl)-1H-pyrazol-3-yl]-9-fluoro-5H-pyrazino[1,2,3-de]-1,4-benzoxazine-3,6(2H, 7H)-dione] | 100 | 100 | 100 | 100 | 100 | 100 | 80 | 100 | 100 | 100 | 100 | 100 | 100 | 100 | 100 | 100 | 100 | 100 | 100 | 99 | Pre-emerge crop damage CORN (phytotoxicity rating) [12, 33]: 90; Pre-emerge crop damage SOY (phytotoxicity rating) [13, 34]: 50; Pre-emerge crop damage RICE (phytotoxicity rating) [14, 35]: 90; Pre-emerge crop damage WHEAT (phytotoxicity rating) [15, 36]: 65; Post-emerge Herbicidal Activity SOH (phytotoxicity rating) [25]: 100; Post-emerge Herbicidal Activity DIS (phytotoxicity rating) [26]: 55; Post-emerge crop damage CORN (phytotoxicity rating) [27, 33]: 25; Post-emerge crop damage SOY (phytotoxicity rating) [28, 34]: 100; Post-emerge crop damage RICE (phytotoxicity rating) [29, 35]: 99; Post-emerge crop damage WHEAT (phytotoxicity rating) [30, 36]: 25
3 | Cn1nc(-c2c(F)cc3c4c2NC(=O)C(C)(C)N4C(=O)CO3)c(Cl)c1C(F)(F)F [1-15, 8-[4-Chloro-1-methyl-5-(trifluoromethyl)-1H-pyrazol-3-yl]-5,5-dimethyl-9-fluoro-5H-pyrazino[1,2,3-de]-1,4-benzoxazine-3,6(2H, 7H)-dione] | 100 | 100 | 100 | 100 | 100 | 100 | 100 | 100 | 100 | 100 | 100 | 100 | 100 | 99 | 100 | 100 | 98 | 100 | 99 | 99 | Pre-emerge crop damage CORN (phytotoxicity rating) [12, 33]: 60; Pre-emerge crop damage SOY (phytotoxicity rating) [13, 34]: 50; Pre-emerge crop damage RICE (phytotoxicity rating) [14, 35]: 40; Pre-emerge crop damage WHEAT (phytotoxicity rating) [15, 36]: 90; Post-emerge Herbicidal Activity SOH (phytotoxicity rating) [25]: 55; Post-emerge Herbicidal Activity DIS (phytotoxicity rating) [26]: 50; Post-emerge crop damage CORN (phytotoxicity rating) [27, 33]: 35; Post-emerge crop damage SOY (phytotoxicity rating) [28, 34]: 100; Post-emerge crop damage RICE (phytotoxicity rating) [29, 35]: 80; Post-emerge crop damage WHEAT (phytotoxicity rating) [30, 36]: 50
